How the values were obtained:
[1] = Precipitation suppression (recrystallization temperature on cooling, hot stage under polarizing microscope); type: physicochemical; settings: for Precipitation suppression: class by recrystallization temperature, heated to isotropic phase, then lowered at 5° C./min
Procedure: Two polarizers of an optical microscope (ECLIPSE E600 POL, manufactured by Nikon Corporation) were arranged so that they were orthogonal to each other, and a sample stand was set between the two polarizers.
Then, a small amount of each synthesized compound was placed on a slide glass, and the slide glass was set on a hot stage placed on a sample stand. While observing the state of the sample with a microscope, the temperature of the hot stage was raised at 5° C./min, and the type of liquid crystal phase and the temperature at which phase transition occurred were recorded from the state of the sample.
In addition, for the recrystallization temperature, the temperature was elevated up to an isotropic phase and then lowered at 5° C./min, and a temperature at which crystals were precipitated was recorded.
Based on the results of the recrystallization temperature measured by the above-mentioned method for evaluating the phase transition temperature, the evaluation was made according to the following standard. The results are shown in Table 3 below. • A: Lower than 50° C. • B: 50° C. or higher and 100° C. or lower • C: Higher than 100° C. and 150° C. or lower • D: Higher than 150° C. and 180° C. or lower

[2] = Solubility in cyclopentanone; type: physicochemical; settings: for Solubility: heated and stirred at 50° C. for 1 minute, left at 20° C. for 10 minutes, concentration lowered from 40% in 5% steps
Procedure: Cyclopentanone was added to 25 mg of each synthesized compound so that the concentration of each compound was 40% by mass, and the mixture was heated and stirred at 50° C. for 1 minute.
Then, the mixture was left to stand at 20° C. for 10 minutes, and in a case where there is no undissolved residue or precipitation, it is determined that the mixture can be dissolved at 40% by mass.
In a case where there was an undissolved residue or precipitation, cyclopentanone was further added to the mixture to reduce the concentration by 5% by mass, an operation of heating and stirring at 50° C. for 1 minute and then leaving the mixture stand at 20° C. for 10 minutes was repeatedly performed until there was no undissolved residue or precipitation, thereby confirming the solubility.

precipitation suppression (in words) ([1]; summary of Table 3) | solubility (in words) ([2]; summary of Table 3) | Compound | Precipitation suppression [1] | Solubility [2]
– | – | C=CC(=O)OCCCCOC(=O)C1CCC(OC(=O)C2CCC(C(=O)Oc3ccc(OC(=O)C4CCC(C(=O)OC5CCC(C(=O)OCCCCOC(=O)C=C)CC5)CC4)c4ccccc34)CC2)CC1 (centres unmarked) [Compound 2-1] | C (Higher than 100 °C and 150 °C or lower) | 10 % by mass
– | – | C=C(C)C(=O)OCCCCOC(=O)C1CCC(C2CCC(C(=O)Oc3ccc(OC(=O)C4CCC(C5CCC(C(=O)OCCCCOC(=O)C(=C)C)CC5)CC4)c4c(OC(C)=O)cccc34)CC2)CC1 (centres unmarked) [Compound 1-12] | A (Lower than 50° C.) | 35 % by mass
– | – | C=CC(=O)OCCOCCOCCOC(=O)C1CCC(C2CCC(C(=O)Oc3ccc(OC(=O)C4CCC(C5CCC(C(=O)OCCOCCOCCOC(=O)C=C)CC5)CC4)c4c(OC(C)=O)cccc34)CC2)CC1 (centres unmarked) [Compound 1-15] | A (Lower than 50° C.) | >40 % by mass
– | – | C=CC(=O)OCCCCOC(=O)C1CCC(C2CCC(C(=O)Oc3ccc(OC(=O)C4CCC(C5CCC(C(=O)OCCCCOC(=O)C=C)CC5)CC4)c4c(OS(C)(=O)=O)cccc34)CC2)CC1 (centres unmarked) [Compound 2-3] | A (Lower than 50° C.) | 25 % by mass
– | – | C=CC(=O)OCCCCOC(=O)C1CCC(C2CCC(C(=O)Oc3ccc(OC(=O)C4CCC(C5CCC(C(=O)OCCCCOC(=O)C=C)CC5)CC4)c4c(OC(=O)CCl)cccc34)CC2)CC1 (centres unmarked) [Compound 2-4] | A (Lower than 50° C.) | 20 % by mass
– | – | C=CC(=O)OCCCCOC(=O)C1CCC(C2CCC(C(=O)Oc3cc(OCC)c(OC(=O)C4CCC(C5CCC(C(=O)OCCCCOC(=O)C=C)CC5)CC4)c4ccccc34)CC2)CC1 (centres unmarked) [Compound 1-4] | B (50 °C or higher and 100 °C or lower) | >40 % by mass
– | – | C=CC(=O)OCCCCOC(=O)C1CCC(C2CCC(C(=O)Oc3ccc(OC(=O)C4CCC(C5CCC(C(=O)OCCCCOC(=O)C=C)CC5)CC4)c4c(OCC)cccc34)CC2)CC1 (centres unmarked) [Compound 1-8] | B (50 °C or higher and 100 °C or lower) | 20 % by mass
– | – | C=CC(=O)OCCCCOC(=O)C1CCC(C2CCC(C(=O)Oc3ccc(OC(=O)C4CCC(C5CCC(C(=O)OCCCCOC(=O)C=C)CC5)CC4)c4c(OCCCC)cccc34)CC2)CC1 (centres unmarked) [Compound 1-9] | A (Lower than 50° C.) | 20 % by mass
– | – | C=CC(=O)OCCCCOC(=O)C1CCC(C2CCC(C(=O)Oc3ccc(OC(=O)C4CCC(C5CCC(C(=O)OCCCCOC(=O)C=C)CC5)CC4)c4c(OCCCCCCCC)cccc34)CC2)CC1 (centres unmarked) [Compound 1-10] | B (50 °C or higher and 100 °C or lower) | 30 % by mass
– | – | C=CC(=O)OCCCCOC(=O)C1CCC(C2CCC(C(=O)Oc3ccc(OC(=O)C4CCC(C5CCC(C(=O)OCCCCOC(=O)C=C)CC5)CC4)c4c(OCC)ccc(OCC)c34)CC2)CC1 (centres unmarked) [Compound 1-16] | A (Lower than 50° C.) | >40 % by mass
– | – | C=CC(=O)OCCCCOc1ccc(C(=O)Oc2ccc(C(=O)Oc3ccc(OC(=O)c4ccc(OC(=O)c5ccc(OCCCCOC(=O)C=C)cc5)cc4)c4c(OC(C)=O)cccc34)cc2)cc1 [Compound 2-2] | C (Higher than 100 °C and 150 °C or lower) | 15 % by mass
– | – | C=CC(=O)OCCCCOC(=O)C1CCC(C2CCC(C(=O)Oc3cc(OC)c(OC(=O)C4CCC(C5CCC(C(=O)OCCCCOC(=O)C=C)CC5)CC4)c4ccccc34)CC2)CC1 (centres unmarked) [Compound 1-3] | C (Higher than 100 °C and 150 °C or lower) | 20 % by mass
– | – | C=CC(=O)OCCCCOC(=O)C1CCC(C2CCC(C(=O)Oc3ccc(OC(=O)C4CCC(C5CCC(C(=O)OCCCCOC(=O)C=C)CC5)CC4)c4ccccc34)CC2)CC1 (centres unmarked) [Compound 1-1] | D (Higher than 150 °C and 180 °C or lower) | 20 % by mass
– | – | C=CC(=O)OCCCCOC(=O)C1CCC(C2CCC(C(=O)Oc3ccc(OC(=O)C4CCC(C5CCC(C(=O)OCCCCOC(=O)C=C)CC5)CC4)c4c(C)cccc34)CC2)CC1 (centres unmarked) [Compound 1-7] | C (Higher than 100 °C and 150 °C or lower) | 25 % by mass
– | – | C=CC(=O)OCCOC(=O)C1CCC(C2CCC(C(=O)Oc3ccc(OC(=O)C4CCC(C5CCC(C(=O)OCCOC(=O)C=C)CC5)CC4)c4c(OC(C)=O)cccc34)CC2)CC1 (centres unmarked) [Compound 1-13] | A (Lower than 50° C.) | 30 % by mass
deteriorated | deteriorated | C=CC(=O)OCCCCOc1ccc(C(=O)Oc2ccc(OC(=O)c3ccc(OC(=O)c4ccc(OC(=O)c5ccc(OCCCCOC(=O)C=C)cc5)cc4)c(C)c3)cc2)cc1 [compound 2, reference compound] | C (Higher than 100 °C and 150 °C or lower) | <5 % by mass
– | – | C=CC(=O)OCCCCOC(=O)C1CCC(C2CCC(C(=O)Oc3cc(C(=O)OC)c(OC(=O)C4CCC(C5CCC(C(=O)OCCCCOC(=O)C=C)CC5)CC4)c4ccccc34)CC2)CC1 (centres unmarked) [Compound 1-5] | B (50 °C or higher and 100 °C or lower) | >40 % by mass
– | – | C=CC(=O)OCCCCOC(=O)C1CCC(C2CCC(C(=O)Oc3ccc(OC(=O)C4CCC(C5CCC(C(=O)OCCCCOC(=O)C=C)CC5)CC4)c4c(OC(C)=O)ccc(OC(C)=O)c34)CC2)CC1 (centres unmarked) [Compound 1-17] | C (Higher than 100 °C and 150 °C or lower) | 20 % by mass
– | – | C=CC(=O)OCCCCOC(=O)C1CCC(C2CCC(C(=O)Oc3ccc(OC(=O)C4CCC(C5CCC(C(=O)OCCCCOC(=O)C=C)CC5)CC4)c4cc(C)ccc34)CC2)CC1 (centres unmarked) [Compound 1-6] | C (Higher than 100 °C and 150 °C or lower) | 35 % by mass
– | – | C=CC(=O)OCCCCOC(=O)C1CCC(C2CCC(C(=O)Oc3cc(C)c(OC(=O)C4CCC(C5CCC(C(=O)OCCCCOC(=O)C=C)CC5)CC4)c4ccccc34)CC2)CC1 (centres unmarked) [Compound 1-2] | C (Higher than 100 °C and 150 °C or lower) | 25 % by mass
– | – | C=CC(=O)OCCCCOC(=O)C1CCC(C2CCC(C(=O)Oc3ccc(OC(=O)C4CCC(C5CCC(C(=O)OCCCCOC(=O)C=C)CC5)CC4)c4c(OC(C)=O)cccc34)CC2)CC1 (centres unmarked) [Compound 1-11] | A (Lower than 50° C.) | 35 % by mass

From patent US20260243940A1, “COMPOUND, POLYMERIZABLE COMPOSITION, CURED PRODUCT, OPTICAL FILM, POLARIZING PLATE, AND IMAGE DISPLAY DEVICE” (FUJIFILM Corporation, priority 2019, published 2026)
